From PubChem BioAssay AID330 (DTP/NCI, 2004)
Several values for one entry are separate records, joined by “and”; a condition that tells them apart may be missing. Equal values may be shown once. Toxic doses and inconclusive results are not listed. Rule for the calls: active = survival T/C of 150% or more; inactive = T/C below 125% in these data.

Test system: P388 leukemia ip, CD2F1 mice, survival T/C
Test: NCI In Vivo Anticancer Drug Screen. Data for tumor model P388 Leukemia (intraperitoneal) in CD2F1 (CDF1) mice
Conditions: endpoint: median survival time, higher = longer survival
Summary of the method: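 Mice carrying the transplanted tumor received test compound or vehicle. Survival was recorded in each group, and the value is the treated-group measurement divided by that of the vehicle-treated control group.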

[1] = dose: 60.0 mg/kg/injection, schedule: Q01DX005 (ip), vehicle: Klucel (hydroxypropylcellulose) (HPC)
[2] = dose: 120.0 mg/kg/injection, schedule: Q01DX005 (ip), vehicle: Klucel (hydroxypropylcellulose) (HPC)
[3] = dose: 240.0 mg/kg/injection, schedule: Q01DX005 (ip), vehicle: Klucel (hydroxypropylcellulose) (HPC)
[4] = dose: 50.0 mg/kg/injection, schedule: Q01DX009 (ip), vehicle: Klucel (hydroxypropylcellulose) (HPC)
[5] = dose: 100.0 mg/kg/injection, schedule: Q01DX009 (ip), vehicle: Klucel (hydroxypropylcellulose) (HPC)
[6] = dose: 200.0 mg/kg/injection, schedule: Q01DX009 (ip), vehicle: Klucel (hydroxypropylcellulose) (HPC)
[7] = dose: 12.5 mg/kg/injection, schedule: Q01DX009 (ip), vehicle: saline
[8] = dose: 25.0 mg/kg/injection, schedule: Q01DX009 (ip), vehicle: saline
[9] = dose: 50.0 mg/kg/injection, schedule: Q01DX009 (ip), vehicle: saline
[10] = dose: 50.0 mg/kg/injection, schedule: Q01DX005 (ip), vehicle: saline with Tween-80
[11] = dose: 100.0 mg/kg/injection, schedule: Q01DX005 (ip), vehicle: saline with Tween-80
[12] = dose: 200.0 mg/kg/injection, schedule: Q01DX005 (ip), vehicle: saline with Tween-80
[13] = dose: 60.0 mg/kg/injection, schedule: Q01DX005 (ip), vehicle: saline with Tween-80
[14] = dose: 120.0 mg/kg/injection, schedule: Q01DX005 (ip), vehicle: saline with Tween-80
[15] = dose: 240.0 mg/kg/injection, schedule: Q01DX005 (ip), vehicle: saline with Tween-80

Measured: T/C

C=C1C(=O)C23CC1CC(O)C2C12COC(O)C1C(C)(C)CCC2OC3=O (stereo not given)
inactive: dose: 1.25 mg/kg/injection, schedule: Q01DX009 (ip), vehicle: saline with Tween-80 108 % of control | dose: 2.5 mg/kg/injection, schedule: Q01DX009 (ip), vehicle: saline with Tween-80 99 % of control | dose: 5.0 mg/kg/injection, schedule: Q01DX009 (ip), vehicle: saline with Tween-80 102 % of control and 120 % of control | dose: 10.0 mg/kg/injection, schedule: Q01DX009 (ip), vehicle: saline with Tween-80 106 % of control and 115 % of control | dose: 20.0 mg/kg/injection, schedule: Q01DX009 (ip), vehicle: saline with Tween-80 116 % of control and 118 % of control | dose: 40.0 mg/kg/injection, schedule: Q01DX009 (ip), vehicle: saline with Tween-80 118 % of control and 124 % of control | dose: 80.0 mg/kg/injection, schedule: Q01DX009 (ip), vehicle: saline with Tween-80 89 % of control

COc1nc(OC)c2cnn(-c3ccc(Cl)cc3)c2n1
inactive: dose: 30.0 mg/kg/injection, schedule: Q01DX005 (ip), vehicle: Klucel (hydroxypropylcellulose) (HPC) 89 % of control | [1] 89 % of control | [2] 92 % of control | [3] 89 % of control

[CH3][Sn]([CH3])([O]c1cccccc1=O)[O]c1cccccc1=O
inactive: dose: 25.0 mg/kg/injection, schedule: Q01DX001 (ip), vehicle: Klucel (hydroxypropylcellulose) (HPC) 99 % of control | dose: 50.0 mg/kg/injection, schedule: Q01DX001 (ip), vehicle: Klucel (hydroxypropylcellulose) (HPC) 99 % of control | dose: 100.0 mg/kg/injection, schedule: Q01DX001 (ip), vehicle: Klucel (hydroxypropylcellulose) (HPC) 100 % of control

C=C(C)C(=O)O[C@H]1[C@H]2[C@H](OC(=O)[C@H]2C)[C@H](O)[C@@H](C)[C@@H]2C=CC(=O)[C@]21C
inactive: dose: 7.5 mg/kg/injection, schedule: Q01DX009 (ip), vehicle: saline with Tween-80 118 % of control | dose: 15.0 mg/kg/injection, schedule: Q01DX009 (ip), vehicle: saline with Tween-80 113 % of control | dose: 30.0 mg/kg/injection, schedule: Q01DX009 (ip), vehicle: saline with Tween-80 124 % of control

CC(=O)OC1=CC(=O)N(C(=O)c2ccc(Cl)cc2)C1
inactive: [4] 109 % of control | [5] 115 % of control | [6] 115 % of control

O=C1CSC(c2ccsc2)N1c1nncs1 (stereo not given)
inactive: [1] 101 % of control | [2] 100 % of control | [3] 108 % of control

CCCCCCCCCCCCCCCCCCCC[N+]1([O-])CCOCC1
inactive: dose: 3.12 mg/kg/injection, schedule: Q01DX009 (ip), vehicle: saline 101 % of control | dose: 6.25 mg/kg/injection, schedule: Q01DX009 (ip), vehicle: saline 87 % of control | [7] 87 % of control and 94 % of control | [8] 94 % of control | [9] 90 % of control and 92 % of control

COC(=O)c1ccc(COc2ccc([N+](=O)[O-])cc2Cl)cc1
inactive: [10] 100 % of control | [11] 104 % of control | dose: 100.0 mg/kg/injection, schedule: Q04DX003 (ip), vehicle: saline with Tween-80 105 % of control | [12] 104 % of control | dose: 200.0 mg/kg/injection, schedule: Q04DX003 (ip), vehicle: saline with Tween-80 105 % of control | dose: 400.0 mg/kg/injection, schedule: Q04DX003 (ip), vehicle: saline with Tween-80 103 % of control

COC(=O)C1CCC(=O)N1Cc1cccs1 (stereo not given)
inactive: [13] 109 % of control | [14] 104 % of control | [15] 106 % of control

CC1(C)CC(C)(OC(=O)c2ccc(F)cc2)N=N1 (stereo not given)
inactive: dose: 12.5 mg/kg/injection, schedule: Q01DX009 (ip), vehicle: other 103 % of control | dose: 25.0 mg/kg/injection, schedule: Q01DX009 (ip), vehicle: other 113 % of control | dose: 50.0 mg/kg/injection, schedule: Q01DX009 (ip), vehicle: other 108 % of control | dose: 100.0 mg/kg/injection, schedule: Q01DX009 (ip), vehicle: other 113 % of control | dose: 200.0 mg/kg/injection, schedule: Q01DX009 (ip), vehicle: other 118 % of control

CCOC(=O)C1=C(C)NC(CO)=C(C(=O)OCC)C1c1cccc([N+](=O)[O-])c1 (stereo not given)
inactive: [10] 94 % of control | [11] 95 % of control | [12] 92 % of control

CCC/C=C/C=C/C(=O)OC1C(C)C2(O)C3C=C(C)C(=O)C3CC(COC(C)=O)=CC2C2C(C)(C)C12OC(=O)C(C)C (stereo not given)
inactive: dose: 0.12 mg/kg/injection, schedule: Q01DX009 (ip), vehicle: Klucel (hydroxypropylcellulose) (HPC) 111 % of control | dose: 0.25 mg/kg/injection, schedule: Q01DX009 (ip), vehicle: Klucel (hydroxypropylcellulose) (HPC) 103 % of control | dose: 0.5 mg/kg/injection, schedule: Q01DX009 (ip), vehicle: Klucel (hydroxypropylcellulose) (HPC) 107 % of control | dose: 1.0 mg/kg/injection, schedule: Q01DX005 (ip), vehicle: distilled water + Tween-80 109 % of control and 113 % of control | dose: 1.0 mg/kg/injection, schedule: Q01DX009 (ip), vehicle: Klucel (hydroxypropylcellulose) (HPC) 106 % of control | dose: 2.0 mg/kg/injection, schedule: Q01DX005 (ip), vehicle: distilled water + Tween-80 121 % of control and 123 % of control | dose: 2.0 mg/kg/injection, schedule: Q01DX005 (ip), vehicle: saline + alcohol 115 % of control | dose: 4.0 mg/kg/injection, schedule: Q01DX005 (ip), vehicle: saline + alcohol 123 % of control

CC1(c2ccc3ccccc3c2)C(C#N)(C#N)C1(C#N)C#N
inactive: [7] 100 % of control | [8] 102 % of control | [9] 89 % of control | dose: 100.0 mg/kg/injection, schedule: Q01DX009 (ip), vehicle: saline 103 % of control

COC(=O)C(CSC(c1ccccc1)(c1ccccc1)c1ccccc1)NC(=O)CC(NC(=O)OCc1ccccc1)C(N)=O (stereo not given)
inactive: dose: 12.5 mg/kg/injection, schedule: Q01DX009 (ip), vehicle: distilled water + Tween-80 106 % of control | dose: 25.0 mg/kg/injection, schedule: Q01DX009 (ip), vehicle: distilled water + Tween-80 93 % of control | dose: 50.0 mg/kg/injection, schedule: Q01DX009 (ip), vehicle: distilled water + Tween-80 103 % of control | dose: 100.0 mg/kg/injection, schedule: Q01DX009 (ip), vehicle: distilled water + Tween-80 94 % of control | dose: 200.0 mg/kg/injection, schedule: Q01DX009 (ip), vehicle: distilled water + Tween-80 102 % of control

CSc1nc(N)c(-c2ccc([N+](=O)[O-])cc2)s1
inactive: [13] 97 % of control | [14] 97 % of control | [15] 97 % of control

O=C([O-])CCNC1OC(CO)C(O)C(O)C1O.O=C([O-])CCNC1OC(CO)C(O)C(O)C1O.[Pd+2] (stereo not given)
inactive: dose: 50.0 mg/kg/injection, schedule: Q01DX005 (ip), vehicle: saline 99 % of control | dose: 100.0 mg/kg/injection, schedule: Q01DX005 (ip), vehicle: saline 102 % of control | dose: 200.0 mg/kg/injection, schedule: Q01DX005 (ip), vehicle: saline 99 % of control

Cc1cc(NCCCCCCCCNc2cc(C)nc3cc(N)ccc23)c2ccc(N)cc2n1
inactive: dose: 0.78 mg/kg/injection, schedule: Q01DX009 (ip), vehicle: water 119 % of control | dose: 1.56 mg/kg/injection, schedule: Q01DX009 (ip), vehicle: water 123 % of control

Clc1cccc(NCNC2Nc3ccccc3N2)c1
inactive: dose: 15.0 mg/kg/injection, schedule: Q01DX005 (ip), vehicle: saline with Tween-80 96 % of control | dose: 30.0 mg/kg/injection, schedule: Q01DX005 (ip), vehicle: saline with Tween-80 97 % of control | [13] 93 % of control

O=C(CCN1C(=O)CC1c1ccco1)N1CCOCC1 (stereo not given)
inactive: [13] 103 % of control | [14] 103 % of control | [15] 97 % of control

CCOC(=O)c1ccc(NC(C)=NC(C)(C)C)cc1
inactive: [4] 93 % of control | [5] 91 % of control | [6] 102 % of control

O=C1NC(Cc2c[nH]c3ccccc23)C(=O)N2CCCC12 (stereo not given)
inactive: dose: 50.0 mg/kg/injection, schedule: Q01DX005 (ip), vehicle: Klucel (hydroxypropylcellulose) (HPC) 100 % of control | dose: 100.0 mg/kg/injection, schedule: Q01DX005 (ip), vehicle: Klucel (hydroxypropylcellulose) (HPC) 104 % of control | dose: 200.0 mg/kg/injection, schedule: Q01DX005 (ip), vehicle: Klucel (hydroxypropylcellulose) (HPC) 97 % of control

Fc1ccc(N=Cc2cccs2)cc1
inactive: [4] 110 % of control | [5] 107 % of control | [6] 110 % of control
